SMILES	melting point [°C]
O=[N+]([O-])c1cnc2ccc(-c3ccccc3)cc2c1Cl	144 to 145
O=C1CSCC(c2ccc(F)cc2)N1 (configuration not stated)	111 to 112
CCSc1cc(C)nc(SCC)c1NC(=O)CCCCCCCSc1nc2ccccc2[nH]1	166 to 168
CCOc1ccccc1OC(c1ccccc1)C(O)CN (configuration not stated)	98.5 to 99.9
CC1CN(N=Cc2cccnc2)C(=O)NN1 (configuration not stated)	235 to 237
Cc1oc(-c2ccccc2)nc1COc1ccc(CON=C(CCCCCCC(=O)O)c2ccc(F)cc2)cc1	56 to 57
CCOC(=O)C(=CNNc1c(Cl)cc(C(F)(F)F)cc1Cl)C(C)=O	75 to 76
CC(C)(C)OC(=O)Nc1ccc(Cl)c(C(F)(F)F)c1	90
N#Cc1cc([N+](=O)[O-])ccc1N1CCC(NCCO)CC1	115
COC(=O)/C=C/c1ccc(CC(C)NCC(O)c2cccc(F)c2)cc1 (configuration not stated)	75 to 110
CCOC(=O)CNC(=O)c1cc(C(=O)c2ccccc2Cl)c(N)s1	216 to 218
COc1cc(C)c(CNCCc2ccc(O)cc2)cc1O	122 to 124
CN1CCN(c2cc(N)c([N+](=O)[O-])cc2F)CC1	154 to 155
Cc1n[nH]c2c(C(=O)NC3(C4CC4)CC3)c(NC(=O)c3cc(C(F)(F)F)nn3-c3ncccc3Cl)c(Cl)cc12	228 to 229
Nc1c(-c2ccc(-c3ccc(F)cc3)cc2)nc2ccc(F)cc2c1C(=O)O	241 to 243
Cc1cc(C)c(/C=C/C2OCC(C)(C)CO2)c(Br)c1	54 to 56
Cc1cc(C)n2ncc(I)c2n1	120 to 122
CN(CC1(c2ccccc2)CC(O)=CC(=O)O1)c1ccccc1 (configuration not stated)	118 to 120
O=C1c2ccccc2C(=O)N1CCn1nnc(C(F)(F)F)n1	98 to 99.5

SMILES	melting point [°C]
CCOC(=O)C(Cl)(Cl)CCCCCCCCCCCCS(=O)(=O)c1ccccc1	69 to 71
CN1CCNC1=NC(c1ccccc1)c1ccccc1	226 to 228
O=C1c2ccccc2SC12CC2	70
CN1C(=O)C([S-])=C(SC(N)=[NH2+])C1=O	150 to 152
CCOC(=O)C(Cc1c[nH]c2c(F)cccc12)(NC=O)C(=O)OCC	164 to 166
CCOC(=O)C(Oc1cccc2[nH]ccc12)C(=O)OCC	52 to 53
CC(C)(O)C#Cc1ncn2c1[C@@H]1CCCN1C(=O)c1c(Cl)cccc1-2	234 to 235
CCc1nc(Cl)c([N+](=O)[O-])c(NC(C)C)n1	51 to 52
CC1SC(=O)NN=C1c1ccc2c(c1)C(=NNc1ccc(Cl)cc1)C(=O)N2 (configuration not stated)	283
COC(=O)c1cccc(C)c1N	27 to 29
Cn1cccc1Cc1cccc(NC(N)=O)c1	84 to 86
CCOC(=O)c1c(OC)c([N+](=O)[O-])cn1C	145 to 147
CC(=O)OCC1OC(n2nnnc2Cl)C(OC(C)=O)C(OC(C)=O)C1OC(C)=O (configuration not stated)	172
CC(=NO)C(C)(C)NCCCNC(C)(C)C(Cn1cc(C)nc1[N+](=O)[O-])=NO	140 to 141
Cc1cc(O)nc2[nH]nc(C)c12	233 to 235
Ic1ncnc2c1ncn2Cc1ccccc1	152 to 153
CCOC(=O)c1cn(-c2ccccc2)c2c(F)c(F)c(F)cc2c1=O	190 to 192
N#Cc1c(OCCO)cccc1[N+](=O)[O-]	140 to 142
OCc1cnc2ccc(Cl)cc2c1O	> 300

Now from value to compound:

melting point [°C]	SMILES
90 to 91	COc1ccc(C2NC(C(=O)O)C(C)(C)S2)c(C(=O)O)c1OC (configuration not stated)
180 to 182	COc1cc2c(cc1C)C1(CO2)C(=O)N(CC2CCCCO2)c2ccccc21 (configuration not stated)
294 to 296	O=C(O)c1cccc(CNc2n[nH]c3ncnc(Nc4cccc(Cl)c4)c23)c1
74 to 80	COC(=O)C1=C(C)NC(C)=C(C(=O)OCCN2CCN(C(c3ccccc3)c3ccccc3)CC2)C1c1cccc(Cl)c1 (configuration not stated)
187 to 188	COc1ccc(/C=C/c2nc3c(c(=O)n(C)c(=O)n3C)n2C)c(OC)c1OC
211	N#Cc1c(N2CCN(C(=O)c3ccco3)CC2)c2cc(F)cnc2n(Cc2cccc(F)c2)c1=O
112 to 113	COc1ccc(-c2nc(COCCc3cccc(NS(=O)(=O)C(F)(F)F)c3)cs2)cc1
182	COCCC(=O)N[C@H]1CC[C@H](CCN2CCC(c3cccc4c3CCO4)CC2)CC1
269 to 271	Oc1ccc2nc(-c3ccc(O)c(F)c3)oc2c1
118 to 120	COc1ccc(F)cc1C(C)(C)CC(C)(O)Cc1cc2ccccc2[nH]1 (configuration not stated)
205 to 207	CC(C)(C)CC(=O)c1c(-c2ccc3cc(O)ccc3c2)oc2ccccc12
96 to 98	COc1cccc(-c2cc(C(C)(C)C)c(O)c(C(C)(C)C)c2)c1
107 to 110	O[C@@H](CNCCOc1ccc2cc(-c3ccon3)oc2c1)COc1ccccc1
200 to 202	O[C@H]1CC[C@H](Nc2nccc(-n3ncc4c(Br)cccc43)n2)CC1
158 to 160	CN1C(=O)c2cc(N)ccc2Oc2ncccc21
182 to 184	CC(=O)OCCC1CCc2c(C3=C(c4cn(C)c5ccccc45)C(=O)OC3=O)c3ccccc3n2C1 (configuration not stated)
115	COc1cc2c(cc1Nc1ncc(Cl)c(Nc3ccc(N(C)C)cc3OC)n1)CCN(CCN1CCOCC1)CC2

melting point [°C]	SMILES
274 to 277	Cc1nn(-c2ccccn2)c2[nH]c3cc(F)c(F)cc3c(=O)c12
125 to 127	CCOC(=O)c1sc(Oc2ccccc2)c2c1CCCC2=O
94 to 96	O=C(O)c1cc(C(c2cc(F)ccc2F)S(=O)(=O)c2ccc(Cl)cc2)c(Cl)cn1 (configuration not stated)
132 to 134	CC(C)(C)OC(=O)Nc1cc(N2CCC3(CC2)OCCO3)c(I)cc1[N+](=O)[O-]
185 to 195	COc1cc(N2CCC(N3CCN(C)CC3)CC2)ccc1-c1nc2c(N[C@H]3[C@@H](C(N)=O)[C@@H]4C=C[C@H]3C4)ccnc2[nH]1
102 to 104	C#CCn1cccc1-c1nc(-c2ccc(OC)cc2)c(-c2ccc(OC)cc2)s1
85 to 86	CNC(=O)n1nc(Oc2ncc(C(F)(F)F)cc2Cl)cc1C
102 to 104	COc1ccc(-c2nccc(N)n2)cc1
175 to 176	CCc1cc(OCc2ccc(C(=O)NS(=O)(=O)c3ccccc3C)cc2)c(C(=O)OC)c(CC)n1
204 to 207	O=C(N[C@H]1CCN(C(=O)c2cc(C(F)(F)F)cc(C(F)(F)F)c2)[C@H](Cc2ccc(Cl)cc2)C1)c1ccnc2ccccc12
155 to 158	CC(C(=O)O)c1ccc2c(c1)C(=O)c1ccccc1CN2C (configuration not stated)
179 to 181	CNC(=O)CNC(=O)c1ccc(C)c(-n2c(C)cc(OCc3ccccc3CNC(=O)Nc3cc(C(C)(C)C)nn3-c3ccc(Cl)c(O)c3)c(Cl)c2=O)c1
109 to 112	COCC(C)Oc1cc(Oc2ccc(S(C)(=O)=O)cc2)cc2cc(C3=NCC(C(OC)OC)S3)[nH]c12 (configuration not stated)
187 to 188	Cn1nc2c(N)nc3c(c2c1CCNC(=O)N1CCOCC1)CCCC3
145 to 147	O=C1C2CCCC2=Nc2ccccc2N1Cc1cccc2ccccc12 (configuration not stated)
90 to 91	COc1ccc(CCNc2nc(Cl)ccc2N)cc1OC
156 to 158	CCn1ncc2c(NCc3ccco3)c3ccccc3nc21

From a melting point compilation (Tetko et al.; mined from patent text by program, amines drawn as free bases though some values may be those of a salt)
